Read-outs that look alike come from different tables or passages of the source.
What was measured:
[1] = rat plasma protein binding; type: in vitro ADME; conditions: previously determined
[2] = Assessment of brain penetration in rats; type: in vivo; conditions: rat
Experimental: Assessment of Brain Penetration of A-116 in Rats
An in vivo study in rats was conducted to assess the extent of brain penetration of A-116. In this study, approximately 10-week-old (250 grams body weight) Wistar rats were dosed once with 10 mg/kg of A-116 subcutaneously. Three rats per group were euthanized 1 hour, 4 hours, and 7 hours post dose. The plasma, the whole brain, and the cerebral spinal fluid (CSF) were collected to determine the tissue concentrations using HPLC-MS/MS. At 1 hour, 4 hours and 7 hours, the respective brain concentrations were 201±52 ng/g, 224±231 ng/g, and 28 ng/g of tissue. The total plasma concentrations were 2240±296 ng/mL, 2220±1780 ng/mL, and 287±75 ng/mL at 1 hour, 4 hours and 7 hours, respectively. To calculate the unbound plasma concentrations, the total plasma concentrations were multiplied by 0.067, a previously determined unbound fraction of rat plasma protein binding. The resulting unbound plasma concentrations were 150±20 ng/mL (1 hour), 149±119 ng/mL (4 hours), and 19.2±5.0 ng/mL (7 hours). The respective CSF concentrations were 64.4±12.0 ng/mL, 72.1±71.9 ng/mL, and 3.9±2.3 ng/mL at 1 hour, 4 hours, and 7 hours post dose. […] To determine the extent of brain penetration, a ratio of the CSF concentration to the unbound plasma concentration was calculated. At 1 hour, 4 hours, and 7 hours, the ratios were 0.43±0.03, 0.44±0.1, and 0.19±0.06, respectively.

[3] = tested on: Gli1; assay: Down regulation of Smo targeted gene Gli1 in the brain, primary medulloblastoma model; type: in vivo; conditions: Ptch1+/-p53-/- medulloblastoma mice, 30 mg/kg once daily for 4 days oral gavage, 6 hours post last dose
Experimental: Down Regulation of Smo Targeted Gene Gli1 in the Brain by A-116
In this study, 6-week-old Ptch1+/−p53−/− primary medulloblastoma mice (n=3 per group) were treated with 30 mg/kg of A-116 or vehicle (0.5% methylcellulose (MC)) once daily for 4 days by oral gavage. On day 4, at 6 hours post last dose, mice were euthanized and tumor bearing cerebella were removed. Total RNA was extracted from the tumor tissue together with the cerebella using the RNeasy Mini Kit (Qiagen). Subsequently, cDNA was synthesized from the RNA using High Capacity cDNA Reverse Transcription Kit (Applied Biosystems) according to the protocol provided by the vendor. Quantitative real-time PCR analysis of Smo targeted gene Gli1 expression level was performed using RT-PCR ABI Prism 7900 sequence detection system (Applied Biosystems).

For `Cc1cnc(-c2cc(N3CCN(C(=O)CCS(C)(=O)=O)CC3)ncc2Cl)c(C)c1` [Example A-116, 5′-chloro-3,5-dimethyl-2′-{4-[3-(methylsulfonyl)propanoyl]piperazin-1-yl}-2,4′-bipyridine], the fraction unbound [1] was 0.067, the Kp at 1 h ([2]; Wistar, CSF / unbound plasma, subcutaneous, 10 mg/kg, 1 hour, read-out: ratio of the CSF concentration to the unbound plasma concentration) was 0.43 ± 0.03 and the Kp at 4 h ([2]; Wistar, CSF / unbound plasma, subcutaneous, 10 mg/kg, 4 hours, read-out: ratio of the CSF concentration to the unbound plasma concentration) was 0.44 ± 0.1. For the same compound, the Kp at 7 h ([2]; Wistar, CSF / unbound plasma, subcutaneous, 10 mg/kg, 7 hours, read-out: ratio of the CSF concentration to the unbound plasma concentration) was 0.19 ± 0.06, the Kp ([2]; Wistar, CSF / unbound plasma, subcutaneous, 10 mg/kg, rats, within 4 hours post dose, read-out: unbound compound in the plasma able to cross the blood brain barrier) was roughly 0.4 and the concentration at 1 h ([2]; Wistar, subcutaneous, 10 mg/kg, total plasma concentration multiplied by 0.067, 1 hour, read-out: unbound plasma concentration) was 150 ± 20 ng/mL. The concentration at 4 h ([2]; Wistar, subcutaneous, 10 mg/kg, total plasma concentration multiplied by 0.067, 4 hours, read-out: unbound plasma concentration) was 149 ± 119 ng/mL, the concentration at 7 h ([2]; Wistar, subcutaneous, 10 mg/kg, total plasma concentration multiplied by 0.067, 7 hours, read-out: unbound plasma concentration) was 19.2 ± 5 ng/mL and the concentration at 1 h ([2]; CSF, sc, Wistar rats, 10 mg/kg subcutaneously, 1 hour, read-out: CSF concentration) was 64.4 ± 12 ng/mL. It also gave a concentration at 4 h ([2]; CSF, sc, Wistar rats, 10 mg/kg subcutaneously, 4 hours, read-out: CSF concentration) of 72.1 ± 71.9 ng/mL, a concentration at 7 h ([2]; CSF, sc, Wistar rats, 10 mg/kg subcutaneously, 7 hours, read-out: CSF concentration) of 3.9 ± 2.3 ng/mL and a concentration at 1 h ([2]; brain, sc, Wistar rats, 10 mg/kg subcutaneously, 1 hour, read-out: brain concentration) of 201 ± 52 ng/g. The concentration at 4 h ([2]; brain, sc, Wistar rats, 10 mg/kg subcutaneously, 4 hours, read-out: brain concentration) was 224 ± 231 ng/g, the concentration at 7 h ([2]; brain, sc, Wistar rats, 10 mg/kg subcutaneously, 7 hours, read-out: brain concentration) was 28 ng/g and the concentration at 1 h ([2]; plasma, sc, Wistar rats, 10 mg/kg subcutaneously, 1 hour, read-out: total plasma concentration) was 2240 ± 296 ng/mL. For the same compound, the concentration at 4 h ([2]; plasma, sc, Wistar rats, 10 mg/kg subcutaneously, 4 hours, read-out: total plasma concentration) was 2220 ± 1780 ng/mL, the concentration at 7 h ([2]; plasma, sc, Wistar rats, 10 mg/kg subcutaneously, 7 hours, read-out: total plasma concentration) was 287 ± 75 ng/mL and the “Gli1 level, % of vehicle control” value [3] was 4.5±0.4%.

From US9056865B2, “Pyridine-2-derivatives as smoothened receptor modulators” (Pfizer Inc., priority 2010, dated 2015)
